Assay results: patent publication US20240408068A1, “Helicase Primase Inhibitors For Treating Cancer In A Combination Therapy With Oncolytic Viruses” (priority 2018, published 2024)

System: CT26 tumor
Assay: oHSV animal model: tumor volume in syngeneic bilaterally-inoculated subcutaneous CT26 tumor-bearing mice
Type: in vivo, Balbc/j mice
Protocol: Assessment of the efficacy of an oncolytic virus treatment in the presence and absence of a potential virostatic test compound (Example 7(-)) in a syngeneic bilaterally-inoculated subcutaneous CT26 tumor-bearing mouse model.
CT26 tumor cells (500 000 cell in 100 μL) were subcutaneously inoculated bilaterally into the right and left flanks of 9 week-old immuno-competent female Balbc/j mice after 20 days acclimation (Provider: Charles River Laboratories—BP 0109—F 69592 L'Arbresle Cedex).
The inoculation procedure of colorectal CT26 tumors in mice was as follows: • At the end of the 20 days acclimation period, and in order to identify the animal all along the experimental procedure (for tumor volume monitoring in particular), mice were identified using tattoo. • The day before tumor cell inoculation, mice have been shaved at the injection sites, under isoflurane gas anesthesia (4% induction and 2% maintain). • The day of inoculation, mice were anesthetized with gas anesthesia with 4% isoflurane induction and 2% isoflurane for anesthesia maintaining. • Tumor cells to be inoculated were resuspended in sterile PBS and the needed volume was loaded in 1 ml syringe with a 26 gauge needle (500000 cells/100 μL).
Virus injection (with HSV-1 Herpes Simplex Virus or vehicle) was performed with a 29G gauge needle (0.5 mL) insulin syringe when tumors reached an average volume of 40 mm^3(on day 7). At this time, virus was injected intratumorally (50 μL corresponding to 5×10^6 HSV-1 (experimental groups 3, 5, 6 and 8) or 100 μL corresponding to 1×10^8 HSV-1 (experimental groups 4 and 7)), into the tumor of the right flank.
Pharmacological animal groups (8 animal per group, 64 animals in total) were organized as such: • 1. Control virus-untreated group: test compound vehicle (200 μL, 5% DMSO; 0.5% hydroxypropylmethylcellulose (HPMC) in PBS) oral gavage (20 gauge needle standard suspension applicator), once a day, for 10 days and starting 72 h after virus injection for the other groups. • 2. Control virus vehicle-treated group: 50 μL of virus vehicle, intratumoral injection when tumors reached an average volume of app. 40 mm^3, with test compound vehicle, oral gavage, once a day, for 10 days and starting 72 h after vehicle virus injection. • 3. HSV-1 (quantity 1; 5×10^6 pfu)-treated group: 50 μL of HSV-1 (5×10^6), intratumoral injection when tumors reached an average volume of app. 40 mm^3, with test compound vehicle, oral gavage, once a day, for 10 days and starting 72 h after virus injection, and with anti-PD1/anti-CTLA4 vehicle, intraperitoneal injection (200 μL PBS) on the same day as the virus injection, and then 3 administrations spaced 3 days apart each other (day 7, 10, 13 and 16). • 4. HSV-1 (quantity 2; 1×10^8 pfu)-treated group: 100 μL of HSV-1 (1×10^8) intratumoral injection when tumors reached an average volume of app. 40 mm^3, with test compound vehicle, oral gavage, once a day, for 10 days and starting 72 h after virus injection. • 5. HSV-1 (quantity 1; 5×10^6 pfu)-test compound-treated group: 50 μL of HSV-1 (5×10^6), intratumoral injection when tumors reached an average volume of app. 40 mm^3, with Example 7(-) (10 mg/kg, 20 mg/mL stock in DMSO, final 1 mg/mL, 5% DMSO; 0.5% HPMC in PBS (w/v), the suspension has been sonicated (2 min ultrasound bath, room temperature)), oral gavage (200 μL), once a day, for 10 days and starting 72 h after virus injection, and with anti-PD1/anti-CTLA4 vehicle, intraperitoneal injection (200 μL, PBS) on the same day as the virus injection, and then 3 administrations spaced 3 days apart each other (day 7, 10, 13 and 16). • 6. […]

[1] = day 0, with HSV-1 1·10^8, 10 mg/kg po from 72 h pi
[2] = day 0, with HSV-1 5·10^6, 10 mg/kg po from 0 h pi
[3] = day 0, with HSV-1 5·10^6, 10 mg/kg po from 72 h pi
[4] = day 5, with HSV-1 1·10^8, 10 mg/kg po from 72 h pi
[5] = day 5, with HSV-1 5·10^6, 10 mg/kg po from 0 h pi
[6] = day 5, with HSV-1 5·10^6, 10 mg/kg po from 72 h pi
[7] = day 7, with HSV-1 1·10^8, 10 mg/kg po from 72 h pi
[8] = day 7, with HSV-1 5·10^6, 10 mg/kg po from 0 h pi
[9] = day 7, with HSV-1 5·10^6, 10 mg/kg po from 72 h pi
[10] = day 10, with HSV-1 1·10^8, 10 mg/kg po from 72 h pi
[11] = day 10, with HSV-1 5·10^6, 10 mg/kg po from 0 h pi
[12] = day 10, with HSV-1 5·10^6, 10 mg/kg po from 72 h pi
[13] = day 12, with HSV-1 1·10^8, 10 mg/kg po from 72 h pi
[14] = day 12, with HSV-1 5·10^6, 10 mg/kg po from 0 h pi
[15] = day 12, with HSV-1 5·10^6, 10 mg/kg po from 72 h pi
[16] = day 14, with HSV-1 1·10^8, 10 mg/kg po from 72 h pi
[17] = day 14, with HSV-1 5·10^6, 10 mg/kg po from 0 h pi
[18] = day 14, with HSV-1 5·10^6, 10 mg/kg po from 72 h pi
[19] = day 17, with HSV-1 1·10^8, 10 mg/kg po from 72 h pi
[20] = day 17, with HSV-1 5·10^6, 10 mg/kg po from 0 h pi
[21] = day 17, with HSV-1 5·10^6, 10 mg/kg po from 72 h pi
[22] = day 19, with HSV-1 1·10^8, 10 mg/kg po from 72 h pi
[23] = day 19, with HSV-1 5·10^6, 10 mg/kg po from 0 h pi
[24] = day 19, with HSV-1 5·10^6, 10 mg/kg po from 72 h pi

Structure (SMILES): Cc1nc(N(C)C(=O)Cc2ccc(-c3cc(F)ccc3F)cc2)sc1[S@@](C)(=N)=O [Example 7(−), (−)-(S)-2-(2′,5′-Difluoro-[1,1′-biphenyl]-4-yl)-N-methyl-N-(4-methyl-5-(S-methylsulfonimidoyl)thiazol-2-yl)acetamide]
- Median tumor volume - Left tumors [1]: 0 mm^3
- Median tumor volume - Right tumors [1]: 0 mm^3
- Median tumor volume - Right tumors (day 0, with HSV-1 5·10^6 + aPD-1 + aCTLA4, 10 mg/kg po from 72 h pi): 0 mm^3
- Median tumor volume - Left tumors (day 0, with HSV-1 5·10^6 + aPD-1 + aCTLM, 10 mg/kg po from 72 h pi): 0 mm^3
- Median tumor volume - Left tumors [2]: 0 mm^3
- Median tumor volume - Right tumors [2]: 0 mm^3
- Median tumor volume - Left tumors [3]: 0 mm^3
- Median tumor volume - Right tumors [3]: 0 mm^3
- Median tumor volume - Left tumors [4]: 18.17 mm^3
- Median tumor volume - Right tumors [4]: 16.55 mm^3
- Median tumor volume - Right tumors (day 5, with HSV-1 5·10^6 + aPD-1 + aCTLA4, 10 mg/kg po from 72 h pi): 16.235 mm^3
- Median tumor volume - Left tumors (day 5, with HSV-1 5·10^6 + aPD-1 + aCTLM, 10 mg/kg po from 72 h pi): 14.66 mm^3
- Median tumor volume - Left tumors [5]: 15.755 mm^3
- Median tumor volume - Right tumors [5]: 16.705 mm^3
- Median tumor volume - Left tumors [6]: 14.155 mm^3
- Median tumor volume - Right tumors [6]: 17.665 mm^3
- Median tumor volume - Left tumors [7]: 23.55 mm^3
- Median tumor volume - Right tumors [7]: 39.735 mm^3
- Median tumor volume - Right tumors (day 7, with HSV-1 5·10^6 + aPD-1 + aCTLA4, 10 mg/kg po from 72 h pi): 31.03 mm^3
- Median tumor volume - Left tumors (day 7, with HSV-1 5·10^6 + aPD-1 + aCTLM, 10 mg/kg po from 72 h pi): 18.32 mm^3
- Median tumor volume - Left tumors [8]: 21.61 mm^3
- Median tumor volume - Right tumors [8]: 25.5 mm^3
- Median tumor volume - Left tumors [9]: 22.85 mm^3
- Median tumor volume - Right tumors [9]: 36.435 mm^3
- Median tumor volume - Left tumors [10]: 33.055 mm^3
- Median tumor volume - Right tumors [10]: 74.725 mm^3
- Median tumor volume - Right tumors (day 10, with HSV-1 5·10^6 + aPD-1 + aCTLA4, 10 mg/kg po from 72 h pi): 72.935 mm^3
- Median tumor volume - Left tumors (day 10, with HSV-1 5·10^6 + aPD-1 + aCTLM, 10 mg/kg po from 72 h pi): 47.345 mm^3
- Median tumor volume - Left tumors [11]: 43.385 mm^3
- Median tumor volume - Right tumors [11]: 43.32 mm^3
- Median tumor volume - Left tumors [12]: 55.18 mm^3
- Median tumor volume - Right tumors [12]: 45.605 mm^3
- Median tumor volume - Left tumors [13]: 92.98 mm^3
- Median tumor volume - Right tumors [13]: 115.17 mm^3
- Median tumor volume - Right tumors (day 12, with HSV-1 5·10^6 + aPD-1 + aCTLA4, 10 mg/kg po from 72 h pi): 94.56 mm^3
- Median tumor volume - Left tumors (day 12, with HSV-1 5·10^6 + aPD-1 + aCTLM, 10 mg/kg po from 72 h pi): 58.12 mm^3
- Median tumor volume - Left tumors [14]: 73.31 mm^3
- Median tumor volume - Right tumors [14]: 48.78 mm^3
- Median tumor volume - Left tumors [15]: 121.82 mm^3
- Median tumor volume - Right tumors [15]: 76.655 mm^3
- Median tumor volume - Left tumors [16]: 224.29 mm^3
- Median tumor volume - Right tumors [16]: 142.49 mm^3
- Median tumor volume - Right tumors (day 14, with HSV-1 5·10^6 + aPD-1 + aCTLA4, 10 mg/kg po from 72 h pi): 105.02 mm^3
- Median tumor volume - Left tumors (day 14, with HSV-1 5·10^6 + aPD-1 + aCTLM, 10 mg/kg po from 72 h pi): 71.44 mm^3
- Median tumor volume - Left tumors [17]: 112.98 mm^3
- Median tumor volume - Right tumors [17]: 39.01 mm^3
- Median tumor volume - Left tumors [18]: 141.445 mm^3
- Median tumor volume - Right tumors [18]: 86.87 mm^3
- Median tumor volume - Left tumors [19]: 348.78 mm^3
- Median tumor volume - Right tumors [19]: 93.34 mm^3
- Median tumor volume - Right tumors (day 17, with HSV-1 5·10^6 + aPD-1 + aCTLA4, 10 mg/kg po from 72 h pi): 60.17 mm^3
- Median tumor volume - Left tumors (day 17, with HSV-1 5·10^6 + aPD-1 + aCTLM, 10 mg/kg po from 72 h pi): 66.86 mm^3
- Median tumor volume - Left tumors [20]: 169.68 mm^3
- Median tumor volume - Right tumors [20]: 60.71 mm^3
- Median tumor volume - Left tumors [21]: 219.98 mm^3
- Median tumor volume - Right tumors [21]: 99.21 mm^3
- Median tumor volume - Left tumors [22]: 352.82 mm^3
- Median tumor volume - Right tumors [22]: 100 mm^3
- Median tumor volume - Right tumors (day 19, with HSV-1 5·10^6 + aPD-1 + aCTLA4, 10 mg/kg po from 72 h pi): 84.68 mm^3
- Median tumor volume - Left tumors (day 19, with HSV-1 5·10^6 + aPD-1 + aCTLM, 10 mg/kg po from 72 h pi): 49.84 mm^3
- Median tumor volume - Left tumors [23]: 474.53 mm^3
- Median tumor volume - Right tumors [23]: 72.69 mm^3
- Median tumor volume - Left tumors [24]: 285.49 mm^3
- Median tumor volume - Right tumors [24]: 105 mm^3
